Results taken from patent US20150239889A1, “PYRAZOLOPYRIMIDINE COMPOUND” (MITSUBISHI TANABE PHARMA CORPORATION, priority 2012, published 2015).

Key:
Hep3B cells = assay: EPO production assay (ELISA of culture supernatant); type: cell-based; conditions: Homo sapiens, 3 μmol/L test compound, 48 hours, relative to control (0.1% DMSO), read-out: EPO production stimulation rate with 3 μmol/L test compound
How it was run: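 Hep3B cells (40000/well) switched to MEM with 0.5% FBS and treated with compound (0.1% DMSO) for 48 h at 37 °C. Supernatant EPO measured by ELISA; value is fold stimulation at 3 μmol/L compound over unstimulated control.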

human HIF-PHD3 = biological target: T1, human HIF-PHD3 (Homo sapiens, UniProt Q9H6Z9); assay: HIF-PHD inhibition assay (fluorescence polarization), human HIF-PHD3; type: biochemical; conditions: 2-oxoglutaric acid 166 μmol/L
T1 construct: purchased CrystalGenomics Ltd
T1 sequence (Q9H6Z9 whole entry): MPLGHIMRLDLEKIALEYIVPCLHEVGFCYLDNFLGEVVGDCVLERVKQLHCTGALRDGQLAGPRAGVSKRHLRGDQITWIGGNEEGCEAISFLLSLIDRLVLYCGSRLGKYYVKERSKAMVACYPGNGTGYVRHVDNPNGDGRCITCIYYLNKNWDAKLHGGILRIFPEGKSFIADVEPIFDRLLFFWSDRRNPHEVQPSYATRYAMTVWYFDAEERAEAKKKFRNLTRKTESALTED
How it was run: (§1)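 Fluorescence polarization was read before and after adding enzyme, and the difference (mP value) taken as enzyme activity. The tracer carried a FAM (5′-fluoresceinamide) tag linked via aminocaproic acid.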

human HIF-PHD2 = biological target: T2, human HIF-PHD2 (Homo sapiens, UniProt Q9GZT9); assay: HIF-PHD inhibition assay (fluorescence polarization), human HIF-PHD2; type: biochemical; conditions: 2-oxoglutaric acid 3.33 μmol/L
T2 construct: purchased CrystalGenomics Ltd
T2 sequence (Q9GZT9 2-426 limits assumed): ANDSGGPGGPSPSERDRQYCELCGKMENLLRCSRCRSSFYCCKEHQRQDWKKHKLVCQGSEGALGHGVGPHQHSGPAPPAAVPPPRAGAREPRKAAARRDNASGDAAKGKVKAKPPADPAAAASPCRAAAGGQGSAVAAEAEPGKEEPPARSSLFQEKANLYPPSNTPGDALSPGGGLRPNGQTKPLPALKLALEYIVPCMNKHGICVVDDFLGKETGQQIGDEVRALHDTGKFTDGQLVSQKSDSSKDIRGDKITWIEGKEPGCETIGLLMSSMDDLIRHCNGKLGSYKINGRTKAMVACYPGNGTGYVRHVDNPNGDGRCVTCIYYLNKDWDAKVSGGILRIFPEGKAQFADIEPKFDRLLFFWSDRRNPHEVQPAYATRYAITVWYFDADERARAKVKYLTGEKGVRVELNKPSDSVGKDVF
How it was run: as §1

In the case of O=C(O)c1cnn(-c2nc(O)c3nn(C(c4ccc(Cl)cc4)c4ccc(Cl)cc4)cc3n2)c1 [Example 239], the fold induction at 3 µM (Hep3B cells) is reported as 1.4, the IC50 (human HIF-PHD3) is reported as 99 nM and the IC50 (human HIF-PHD2) is reported as 5.5 nM.
With O=C(O)c1cnn(-c2nc(O)c3nn(Cc4cccc(-c5ccccc5)c4)cc3n2)c1 [Example 240] the fold induction at 3 µM (Hep3B cells) was 1, the IC50 (human HIF-PHD3) was 140 nM and the IC50 (human HIF-PHD2) was 17 nM.
O=C(O)c1cnn(-c2nc(O)c3nn(Cc4ccccc4-c4ccccc4)cc3n2)c1 [Example 241] was tested, and the fold induction at 3 µM (Hep3B cells) was 1.2, the IC50 (human HIF-PHD3) was 370 nM and the IC50 (human HIF-PHD2) was 8.7 nM.
Work on O=C(O)c1cnn(-c2nc(O)c3nn(Cc4ccc5ccccc5c4)cc3n2)c1 [Example 242] yielded a fold induction at 3 µM (Hep3B cells) of 1.7, an IC50 (human HIF-PHD3) of 150 nM and an IC50 (human HIF-PHD2) of 17 nM.
O=C(O)c1cnn(-c2nc(O)c3nn(CCc4ccc5ccccc5c4)cc3n2)c1 [Example 243] gave a fold induction at 3 µM (Hep3B cells) of 1.6, an IC50 (human HIF-PHD3) of 260 nM and an IC50 (human HIF-PHD2) of 57 nM.
Compound O=C(O)c1cnn(-c2nc(O)c3nn(Cc4ccc(Cl)cc4F)cc3n2)c1 [Example 244] has a fold induction at 3 µM (Hep3B cells) of 1.4, an IC50 (human HIF-PHD3) of 180 nM and an IC50 (human HIF-PHD2) of 63 nM.
In the case of O=C(O)c1cnn(-c2nc(O)c3nn(Cc4ccc(-c5ccccc5)cc4F)cc3n2)c1 [Example 245], the fold induction at 3 µM (Hep3B cells) is reported as 6.2, the IC50 (human HIF-PHD3) is reported as 68 nM and the IC50 (human HIF-PHD2) is reported as 2.3 nM.
O=C(O)c1cnn(-c2nc(O)c3nn(CCCN(c4ccccc4)c4ccccc4)cc3n2)c1 [Example 246] gave a fold induction at 3 µM (Hep3B cells) of 1.8, an IC50 (human HIF-PHD3) of 160 nM and an IC50 (human HIF-PHD2) of 21 nM.
Compound O=C(O)c1cnn(-c2nc(O)c3nn(CC4CCN(c5ccc(C(F)(F)F)cn5)CC4)cc3n2)c1 [Example 247] has a fold induction at 3 µM (Hep3B cells) of 1.3, an IC50 (human HIF-PHD3) of 270 nM and an IC50 (human HIF-PHD2) of 17 nM.
In the case of O=C(O)c1cnn(-c2nc(O)c3nn(CCC(c4ccccc4)c4ccccc4)cc3n2)c1 [Example 248], the fold induction at 3 µM (Hep3B cells) is reported as 3.2, the IC50 (human HIF-PHD3) is reported as 99 nM and the IC50 (human HIF-PHD2) is reported as 15 nM.
In the case of CCC(c1ccc(C(F)(F)F)cc1)n1ncc2nc(-n3cc(C(=O)O)cn3)nc(O)c21 (stereo not drawn) [Example 326], the fold induction at 3 µM (Hep3B cells) is reported as 7.7, the IC50 (human HIF-PHD3) is reported as 360 nM and the IC50 (human HIF-PHD2) is reported as 53 nM.
With O=C(O)c1cnn(-c2nc(O)c3c(cnn3CC3CCC4(CC3)CC4)n2)c1 [Example 378] the fold induction at 3 µM (Hep3B cells) was 9.6, the IC50 (human HIF-PHD3) was 290 nM and the IC50 (human HIF-PHD2) was 23 nM.
Compound O=C(O)c1cnn(-c2nc(O)c3c(cnn3CC3CCC4(CCC4)CC3)n2)c1 [Example 379] has a fold induction at 3 µM (Hep3B cells) of 10, an IC50 (human HIF-PHD3) of 200 nM and an IC50 (human HIF-PHD2) of 16 nM.
For CC1(C)CCC(Cn2ncc3nc(-n4cc(C(=O)O)cn4)nc(O)c32)CC1 [Example 380], the fold induction at 3 µM (Hep3B cells) was 3.9, the IC50 (human HIF-PHD3) was 400 nM and the IC50 (human HIF-PHD2) was 20 nM.
With O=C(O)c1cnn(-c2nc(O)c3c(cnn3CC34CC5CC(CC(C5)C3)C4)n2)c1 [Example 381] the fold induction at 3 µM (Hep3B cells) was 6.3, the IC50 (human HIF-PHD3) was 500 nM and the IC50 (human HIF-PHD2) was 46 nM.
With C[C@@H](c1ccc(C(F)(F)F)cc1)n1nc(F)c2nc(-n3cc(C(=O)O)cn3)nc(O)c21 [Example 439] the fold induction at 3 µM (Hep3B cells) was 5.3, the IC50 (human HIF-PHD3) was 550 nM and the IC50 (human HIF-PHD2) was 22 nM.
Compound C[C@@H](c1ccc(Cl)c(Cl)c1)n1nc(F)c2nc(-n3cc(C(=O)O)cn3)nc(O)c21 [Example 440] has a fold induction at 3 µM (Hep3B cells) of 2.6, an IC50 (human HIF-PHD3) of 160 nM and an IC50 (human HIF-PHD2) of 17 nM.
Compound C[C@@H](c1ccc2ccccc2c1)n1nc(F)c2nc(-n3cc(C(=O)O)cn3)nc(O)c21 [Example 442] has a fold induction at 3 µM (Hep3B cells) of 3.3, an IC50 (human HIF-PHD3) of 360 nM and an IC50 (human HIF-PHD2) of 11 nM.
Compound C[C@@H](c1ccc(C(F)(F)F)cc1)n1nc(Cl)c2nc(-n3cc(C(=O)O)cn3)nc(O)c21 [Example 443] has a fold induction at 3 µM (Hep3B cells) of 2.9, an IC50 (human HIF-PHD3) of 250 nM and an IC50 (human HIF-PHD2) of 16 nM.
For Cc1nn(Cc2ccc(C(F)(F)F)cc2)c2c(O)nc(-n3cc(C(=O)O)cn3)nc12 [Example 444], the fold induction at 3 µM (Hep3B cells) was 2.2, the IC50 (human HIF-PHD3) was 360 nM and the IC50 (human HIF-PHD2) was 37 nM.
Cc1nn([C@@H](C)c2ccc(C(F)(F)F)cc2)c2c(O)nc(-n3cc(C(=O)O)cn3)nc12 [Example 446] showed a fold induction at 3 µM (Hep3B cells) of 6.3, an IC50 (human HIF-PHD3) of 480 nM and an IC50 (human HIF-PHD2) of 18 nM.
In the case of Cc1nn([C@@H](C)c2ccc(Cl)c(Cl)c2)c2c(O)nc(-n3cc(C(=O)O)cn3)nc12 [Example 447], the fold induction at 3 µM (Hep3B cells) is reported as 5.4, the IC50 (human HIF-PHD3) is reported as 560 nM and the IC50 (human HIF-PHD2) is reported as 20 nM.
Work on Cc1nn([C@@H](C)c2ccc3ccccc3c2)c2c(O)nc(-n3cc(C(=O)O)cn3)nc12 [Example 454] yielded a fold induction at 3 µM (Hep3B cells) of 2.7, an IC50 (human HIF-PHD3) of 730 nM and an IC50 (human HIF-PHD2) of 30 nM.
O=C(O)c1cnn(-c2nc(O)c3c(n2)c(F)nn3C[C@H]2CC[C@H](C(F)(F)F)CC2)c1 [Example 465] was tested, and the fold induction at 3 µM (Hep3B cells) was 2.5, the IC50 (human HIF-PHD3) was 210 nM and the IC50 (human HIF-PHD2) was 11 nM.
O=C(O)c1cnn(-c2nc(O)c3c(n2)c(F)nn3CC2CCC3(CC2)CC3)c1 [Example 466] was tested, and the fold induction at 3 µM (Hep3B cells) was 2.6, the IC50 (human HIF-PHD3) was 240 nM and the IC50 (human HIF-PHD2) was 12 nM.
With O=C(O)c1cnn(-c2nc(O)c3c(n2)c(F)nn3CC2CCC3(CCC3)CC2)c1 [Example 467] the fold induction at 3 µM (Hep3B cells) was 3.2, the IC50 (human HIF-PHD3) was 270 nM and the IC50 (human HIF-PHD2) was 15 nM.
In the case of C[C@@H](C1CCCCC1)n1nc(F)c2nc(-n3cc(C(=O)O)cn3)nc(O)c21 [Example 468], the fold induction at 3 µM (Hep3B cells) is reported as 3.1, the IC50 (human HIF-PHD3) is reported as 300 nM and the IC50 (human HIF-PHD2) is reported as 25 nM.
CC1(Cn2nc(F)c3nc(-n4cc(C(=O)O)cn4)nc(O)c32)CCCCC1 [Example 470] was tested, and the fold induction at 3 µM (Hep3B cells) was 1.7, the IC50 (human HIF-PHD3) was 260 nM and the IC50 (human HIF-PHD2) was 48 nM.
For O=C(O)c1cnn(-c2nc(O)c3c(n2)c(F)nn3CCC2CCCC2)c1 [Example 471], the fold induction at 3 µM (Hep3B cells) was 1.4, the IC50 (human HIF-PHD3) was 170 nM and the IC50 (human HIF-PHD2) was 15 nM.
For O=C(O)c1cnn(-c2nc(O)c3c(n2)c(F)nn3CCC2CCCCC2)c1 [Example 472], the fold induction at 3 µM (Hep3B cells) was 2.4, the IC50 (human HIF-PHD3) was 350 nM and the IC50 (human HIF-PHD2) was 17 nM.
In the case of Cc1nn(CC2CCCCCC2)c2c(O)nc(-n3cc(C(=O)O)cn3)nc12 [Example 473], the fold induction at 3 µM (Hep3B cells) is reported as 2, the IC50 (human HIF-PHD3) is reported as 1200 nM and the IC50 (human HIF-PHD2) is reported as 48 nM.
For Cc1nn(C[C@H]2CC[C@H](C(F)(F)F)CC2)c2c(O)nc(-n3cc(C(=O)O)cn3)nc12 [Example 474], the fold induction at 3 µM (Hep3B cells) was 2.8, the IC50 (human HIF-PHD3) was 190 nM and the IC50 (human HIF-PHD2) was 30 nM.
Work on Cc1nn(CCC2CCCC2)c2c(O)nc(-n3cc(C(=O)O)cn3)nc12 [Example 476] yielded a fold induction at 3 µM (Hep3B cells) of 2.7, an IC50 (human HIF-PHD3) of 570 nM and an IC50 (human HIF-PHD2) of 36 nM.
For O=C(O)c1cnn(-c2nc(O)c3c(n2)c(C(F)(F)F)nn3CC2CCCCC2)c1 [Example 477], the fold induction at 3 µM (Hep3B cells) was 2.5, the IC50 (human HIF-PHD3) was 830 nM and the IC50 (human HIF-PHD2) was 180 nM.
Compound O=C(O)c1cnn(-c2nc(O)c3c(n2)c(F)nn3C2CCCCC2)c1 [Example 478] has a fold induction at 3 µM (Hep3B cells) of 1.8, an IC50 (human HIF-PHD3) of 370 nM and an IC50 (human HIF-PHD2) of 45 nM.
O=C(O)c1cnn(-c2nc(O)c3[nH]ncc3n2)c1 [Example 484] gave a fold induction at 3 µM (Hep3B cells) of 1.6, an IC50 (human HIF-PHD3) of over 1000 nM and an IC50 (human HIF-PHD2) of 35 nM.
Compound CCCC(C)(C)Cn1ncc2nc(-n3cc(C(=O)O)cn3)nc(O)c21 [Example 493] has a fold induction at 3 µM (Hep3B cells) of 2.8, an IC50 (human HIF-PHD3) of 550 nM and an IC50 (human HIF-PHD2) of 86 nM.
CCCC(CCC)Cn1ncc2nc(-n3cc(C(=O)O)cn3)nc(O)c21 [Example 495] showed a fold induction at 3 µM (Hep3B cells) of 18, an IC50 (human HIF-PHD3) of 500 nM and an IC50 (human HIF-PHD2) of 68 nM.
Compound CCC(CC)Cn1nc(F)c2nc(-n3cc(C(=O)O)cn3)nc(O)c21 [Example 498] has a fold induction at 3 µM (Hep3B cells) of 2.7, an IC50 (human HIF-PHD3) of 310 nM and an IC50 (human HIF-PHD2) of 49 nM.
